How the values were obtained:
Format in all cases: in vivo
[1] = system: Boll weevil (Anthonomus grandis); assay: Activity against Boll weevil (eggs sprayed in microtiterplates); settings: 2500 ppm solution in 1:3 DMSO:water, eggs sprayed with 20 μl, 3 to 5 days, untreated controls 0%
Protocol: 1. Activity against Boll weevil (Anthonomus grandis)
The active compounds were formulated as a 2500 ppm solution in 1:3 DMSO:water. 10 to 15 eggs were placed into microtiterplates filled with 2% agar-agar in water and 300 ppm formaline. The eggs were sprayed with 20 μl of the test solution, the plates were sealed with pierced foils and kept at 24-26° C. and 75-85% humidity with a day/night cycle for 3 to 5 days. Mortality was assessed on the basis of the remaining unhatched eggs or larvae on the agar surface and/or quantity and depth of the digging channels caused by the hatched larvae. Tests were replicated 2 times.

[2] = system: Vetch aphid (Megoura viciae); assay: Activity against Vetch aphid (sprayed bean leaf disks); settings: foliar, 144 h, 2500 ppm solution in 1:3 DMSO:water, leaf disks sprayed with 2.5 μl, adult aphids, 6 days, untreated controls 0%
Protocol: 4. Activity against Vetch aphid (Megoura viciae)
The active compounds were formulated as a 2500 ppm solution in 1:3 DMSO:water. Bean leaf disks were placed into microtiterplates filled with 0.8% agar-agar and 2.5 ppm OPUS™. The leaf disks were sprayed with 2.5 μl of the test solution and 5 to 8 adult aphids were placed into the microtiterplates which were then closed and kept at 22-24° C. and 35-45% under fluorescent light for 6 days. Mortality was assessed on the basis of vital, reproduced aphids. Tests were replicated 2 times.

[3] = system: yellowfever mosquito (Aedes aegyptii); assay: Activity via glass contact (treated glass vials); settings: 10 ppm in acetone, 0.5 ml per glass vial, 22° C., untreated controls 0%
Source text: 9. Activity against Argentine ant (Linepithema humile), harvester ant (Pogonomyrmex californicus), acrobat ant (Crematogaster spp.), carpenter ant (Camponotus floridanus), fire ant (Solenopsis invicta), house fly (Musca domestica), stable fly (Stomoxys calcitrans), flesh fly (Sarcophaga sp.), yellowfever mosquito (Aedes aegyptii), house mosquito (Culex quinquefasciatus), malaria mosquito (Anopheles albimanus), German cockroach (Blattella Germanica), cat flea (Ctenocephalides felis), and brown dog tick (Rhipicephalus sanguineus) via glass contact
Glass vials were treated with 0.5 ml of a solution of 10 ppm of the active ingredient in acetone and allowed to dry. Insects or ticks were placed into each vial together with some food and moisture supply.

SMILES	mortality at 2500 ppm [1] [%]	mortality at 2500 ppm [2] [%]	mortality at 10 ppm [3] [%]
CN(C(=O)CC(C#N)(C#N)CCC(F)(F)F)C(C)(C)C [I-1, 3,3-dicyano-6,6,6-trifluoro-hexanoic acid tert-butyl-methyl-amide]	> 75	> 75	–
CN(C(=O)CC(C#N)(C#N)CCC(F)(F)F)C(C)(C)C#N [I-2, 3,3-dicyano-6,6,6-trifluoro-hexanoic acid (cyano-dimethyl-methyl)-methyl-amide]	–	–	> 75
